# Assay results as given in BindingDB's records for doi:10.1124/jpet.102.046128 (Bristol-Myers Squibb Pharmaceuticals Research Institute, 2003).
# Values joined by “and” are separate entries in the source; they are usually repeats but may differ in a detail not shown here. Identical values can stand only once.
# Molecular target: T1, Corticotropin-releasing factor receptor 1 (Homo sapiens, UniProt P34998)
# T1 sequence (P34998 whole entry): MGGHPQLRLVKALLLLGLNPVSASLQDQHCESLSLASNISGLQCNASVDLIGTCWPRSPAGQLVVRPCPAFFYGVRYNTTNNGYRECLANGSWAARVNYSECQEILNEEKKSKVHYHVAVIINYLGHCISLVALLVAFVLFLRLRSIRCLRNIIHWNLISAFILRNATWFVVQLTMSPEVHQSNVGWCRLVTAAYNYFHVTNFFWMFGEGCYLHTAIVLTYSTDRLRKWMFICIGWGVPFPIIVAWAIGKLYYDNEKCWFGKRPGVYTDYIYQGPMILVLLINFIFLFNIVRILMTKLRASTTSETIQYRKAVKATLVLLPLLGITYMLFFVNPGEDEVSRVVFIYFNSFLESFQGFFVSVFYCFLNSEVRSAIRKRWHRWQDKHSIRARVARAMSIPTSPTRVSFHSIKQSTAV
row,Compound,Ki
1,CC[C@H](C)[C@H](NC(=O)[C@H](CC(=O)O)NC(=O)[C@H](CC(C)C)NC(=O)[C@H](CC(C)C)NC(=O)[C@H](CCCCN)NC(=O)[C@H](CCCN=C(N)N)NC(=O)[C@H](CC(N)=O)NC(=O)[C@H](CO)NC(=O)[C@H](Cc1cnc[nH]1)NC(=O)[C@H](C)NC(=O)[C@H](CCC(N)=O)NC(=O)[C@H](CCC(N)=O)NC(=O)[C@H](C)NC(=O)[C@H](CC(C)C)NC(=O)[C@H](CCC(N)=O)NC(=O)[C@H](CC(=O)O)NC(=O)[C@H](C)NC(=O)[C@H](CCCCN)NC(=O)[C@@H](NC(=O)[C@H](CCSC)NC(=O)[C@H](CCC(=O)O)NC(=O)[C@H](CC(C)C)NC(=O)[C@@H](NC(=O)[C@H](CCC(=O)O)NC(=O)[C@H](CCCN=C(N)N)NC(=O)[C@H](CC(C)C)NC(=O)[C@H](CC(C)C)NC(=O)[C@H](Cc1cnc[nH]1)NC(=O)[C@H](Cc1ccccc1)NC(=O)[C@@H](NC(=O)[C@H](CC(C)C)NC(=O)[C@H](CC(=O)O)NC(=O)[C@H](CC(C)C)NC(=O)[C@H](CO)NC(=O)[C@@H](NC(=O)[C@@H]1CCCN1C(=O)[C@@H]1CCCN1C(=O)[C@H](CCC(=O)O)NC(=O)[C@H](CCC(N)=O)NC(=O)[C@@H](N)CO)[C@@H](C)CC)[C@@H](C)O)C(C)C)[C@@H](C)O)C(=O)N[C@@H](C)C(N)=O [NSC_0],3.3 nM and 23.1 nM
2,CCC(COC)n1nnc2c(Nc3ccc(OC)cc3C)nc(C)cc21 (stereo unspecified),6.8 nM and 4.9 nM
3,COCC(COC)Nc1nc(C)nc2c(-c3ccc(Cl)cc3Cl)c(C)nn12 [DMP696],2.8 nM
4,CCCCN(CC)c1nc(C)nc2c1c(C)cn2-c1c(C)cc(C)cc1C,1.2 nM and 0.4 nM
5,CCC(CC)Nc1cc(C)nc2c(-c3ccc(OC)cc3C)c(C)nn12,0.4 nM
6,H-DLTFHLLREMLEMAKAEQEAEQAALNRLLLEEA-NH2 [NSC_0],> 1000 nM
